Measured values from patent US20220054610A1, “SLOW-CYCLING CELL-RNA BASED NANOPARTICLE VACCINE TO TREAT CANCER” (University of Florida Research Foundation, Inc., priority 2018, published 2022).

Columns and labels:
[1] = tested on: L0, L1, L2 GBM patient-derived cell line xenografts; assay: In vivo survival with FABP7 inhibitor and/or 2-DG, Kaplan-Meier and Cox frailty model; set-up: species or system NOD-SCID mice; conditions: Cox frailty model, all three GBM cell lines grouped
hGBM SCCs and FCCs = assay: Cell death by flow cytometry (propidium iodide incorporation, cleaved caspase 3); type: cell-based, human; conditions: for apoptotic cell death (cleaved caspase 3) in SCCs: unlike FCCs, 24 hours of treatment
Description: Propidium iodide incorporation and expression of cleaved caspase 3 were used to compare the effects of glucose restriction and/or mitochondrial function inhibition (by rotenone or metformin treatment). Briefly, cells were labeled with CellTrace dye and grown in complete medium for 5-7 days before being placed in high glucose (HG; >500 mg/dL) or physiological glucose conditions (PG; 90-110 mg/dL) and/or treated with rotenone (0.5-1 μM) or metformin (10-20 mM) for 24 hours. Media glucose concentrations were monitored daily and maintained constant throughout the experiments by adding glucose to the cell cultures as needed, which prevented the glucose supply exhaustion that might have occurred due to FCCs' higher division rate.
(§1) Propidium iodide and cleaved caspase 3 staining were quantified using flow cytometry. The effects of restricting glucose along with mitochondrial targeting using rotenone or metformin were investigated using the CyQUANT™ assay. Cells were plated at 60,000 cells per well in 96-well plates and exposed to the treatments alone or in combination (physiological glucose, 0.5 μM rotenone, and 10 mM metformin). CyQUANT™ binding dye was added to each well and incubated for 30 min at 37° C. before being quantified using Biotek™ Cytation™ 3 Cell Imaging Multi-Mode Reader.

FABP3 = target: T1, FABP3 (Homo sapiens, UniProt P05413); assay: C16-BODIPY fatty acid uptake by flow cytometry, FABP3 inhibition; type: cell-based; conditions: SCCs; 250 nM FABP3 inhibitor
T1 construct: endogenous in cells; host or cells: patient-derived GBM cells (SCCs and FCCs)
Description: (§2) Each cell line was labeled with CellTrace dye and grown for 5-7 days. Cells were then dissociated and treated with different BODIPY® FLC16 (Molecular probes) concentrations and incubation times described below. Fatty acids conjugated to C16-BODIPY fluorophore undergo native-like metabolism and transport. Dose response was performed with 0, 0.5, 2.5, 5, 10, 25, and 50 nM BODIPY, and the time course was done at a concentration of 5 nM for 1, 4, 5, 10, and 15 min. The cells were then washed and fixed with 4% paraformaldehyde. To determine the amount of fatty acid uptake, cells were analyzed by flow cytometry on a BD LSRII Flow Cytometer. Fatty acid transporter inhibitors SB-FI-26 (Cayman Chemicals, #14191) and BMS309403 (Millipore, #34310) were used to inhibit FABP7 (Kaczocha et al., 2014) and FABP3 (Furuhashi et al., 2007), respectively.

[2] = tested on: GBM unsorted and SCC populations; assay: Tumor sphere migration assay; type: cell-based, human
Description: For quantification of cell migration, tumor spheres were plated onto a laminin/poly-D-lysine coated surface at low density and in the presence of growth factors, FABP7 inhibitor (SB-FI-26), or DMSO as a solvent control. Images were taken from the same spheres 2 hours and 24 hours after plating with a Leica DM IL microscope equipped with a DFC3000G camera and Leica application suite X software. The greatest distance of outgrowing cells was measured using ImageJ, and migration distance was calculated as the difference between the two time points. Only spheres with a diameter greater than 50 μm, 2 hours after plating, were used to measure migration distance.

FABP7 = target: T2, FABP7 (Homo sapiens, UniProt O15540); assay: C16-BODIPY fatty acid uptake by flow cytometry, FABP7 inhibition; type: cell-based; conditions: SCCs; 200 nM FABP7 inhibitor, L1
T2 construct: endogenous in cells; host or cells: L1 patient-derived GBM cell line, slow-cycling (SCC) and fast-cycling (FCC) cells
Description: as §2

L1 SCCs and FCCs = assay: CyQUANT proliferation assay, FABP7 inhibitor with high or physiological glucose; type: cell-based, human; conditions: 5 days
Text: (FIG. 7A) GSEA comparing RNA sequencing results between SCCs and FCCs (n=3 biological replicates, L0-1-2) for the fatty acid metabolism gene signature. FDR, false discovery rate; NES, normalized enrichment score; Nom., nominal. (FIG. 7B) Results for qRT-PCR of genes differentially expressed between SCCs and FCCs using the RT2 Profiler PCR Array for Human Fatty Acid Metabolism. Changes in transcript levels are given as percent change relative to FCCs (n=3-8, p<0.05, one sample t-test). (FIG. 7C) FABP7 expression in brain (n=4), breast (n=336), colorectal (n=374), lung (n=117), ovarian (n=242), and pancreatic (n=20) cancer cell lines (**, p<0.005, ****, p<0.0001, one-way ANOVA). (FIG. 7D) Evaluation of the Bredel dataset indicated higher expression of FABP7 in glioblastoma (n=27) compared to non-malignant (n=4) brain tissue (**, p<0.005, t-test). […] (FIG. 7J) C16-BODIPY uptake was measured in L1 GBM line SCCs or FCCs cultured with or without 200 nM FABP7 inhibitor (FABP7i, each condition, n=3, *** p<0.0001, linear regression). […] Cell proliferation was assessed using CyQUANT assays 5 days after treatment (n=2-3, * p<0.05, one-way ANOVA with Tukey post-test). (FIG. 7L) C16-BODIPY uptake was measured in the L1 wild-type (WT) and CRISPR-FABP7 (crFABP7) cell line (each condition, n=3, * p<0.05, linear regression). […]

[3] = tested on: GBM xenograft tumor cell invasion; assay: In vivo tumor cell invasion after FABP7 inhibition; set-up: species or system NOD-SCID mice; conditions: in vivo inhibition of FABP7
Description: Tumor invasion was measured using human-specific nestin labeling (Millipore, MAB5326). Full images of brain sections were obtained by multiple gray scale imaging acquired using Spot Advanced software (Spot Imaging Solutions), merged into full images, and inverted into black-and-white images using Photoshop CS6 (Adobe Systems). Staining threshold levels were adjusted in Image J software to distinguish tumor from background, as previously described (Siebzehnrubl F A, et al. (2013) EMBO Mol Med: 1196-1212). Invasion index was obtained by calculating the ratio of the squared-perimeter distance over the area (P2/A). Dissociated tumors are associated with higher invasion indices compared to more spherical tumors characterized by lower invasion indices. High-power images of stained tissues were taken using an IX81-DSU spinning disk confocal microscope (Olympus) fitted with a 60x water immersion objective, and all images were captured as z-stacks (0.5 μm steps). For 3D imaging, pictures were acquired using a UPLSAPO 60x water objective and Hamamatsu ORCA-AG Camera. Images were captured as z-stacks (0.5 μm steps). All image analyses and 3D surface reconstructions utilized the 3i SlideBook v4.2 Software (with Deconvolution Module). Image capture settings were standardized across samples. 3D surface reconstruction rendering cut-off values were also standardized in the 3i SlideBook software.

hGBM cells = assay: CyQUANT assay, glucose restriction combined with mitochondrial targeting; type: cell-based, human; conditions: physiological glucose plus 0.5 μM rotenone or 10 mM metformin, 24 hours
Description: as §1

[4] = tested on: L1 SCC, FCC or total unsorted intracranial xenografts; assay: In vivo rotenone treatment of intracranially implanted animals, survival; set-up: species or system NOD-SCID mice
Text: Adult male NOD-SCID mice (7-15 weeks old) were used for in vivo tumor implants following NIH and institutional (IACUC) guidelines and regulations for animal care and handling. The mice colonies were maintained at the University of Florida's animal facility. Animals were randomized to cages following implantation. For in vivo tumor invasion assay, FACS cells were intracranially implanted as previously described (Deleyrolle L P, et al. (2011) Brain 134:1331-43; Siebzehnrubl F A, et al. (2013) Hoang-Minh et al., EMBO Mol Med: 1196-1212) and invasion assay was performed 10 weeks post implant. For in vivo TMZ treatment, animals were implanted with 100,000 cells immediately after cell sorting. Tumor-bearing animals were intraperitoneally treated with 5 injections of 20 mg/kg TMZ over 5 days at 3 (hGBM L0) or 4 (hGBM L2) weeks post implantation. For in vivo restricted glucose and mitochondria targeting experiments, animals were xenografted with SCCs or FCCs and subjected to either a high carbohydrate control diet or a custom supplemented high fat/low carbohydrate dietary regimen (sHFLC) (Martuscello R T, et al. (2016) Clin Cancer Res. 22:2482-95). Each group received vehicle or rotenone treatment (0.5 mg/kg i.p, once a week for 6 weeks).

T2 sequence (O15540 whole entry): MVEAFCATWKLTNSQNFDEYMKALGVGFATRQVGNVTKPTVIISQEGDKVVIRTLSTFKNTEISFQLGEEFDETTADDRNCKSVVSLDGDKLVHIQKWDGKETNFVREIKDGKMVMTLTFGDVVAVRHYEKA
T1 sequence (P05413 whole entry): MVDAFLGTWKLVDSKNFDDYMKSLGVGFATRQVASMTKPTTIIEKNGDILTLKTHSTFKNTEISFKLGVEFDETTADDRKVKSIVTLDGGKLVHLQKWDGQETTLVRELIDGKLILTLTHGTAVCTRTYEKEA

SMILES: O=CC[C@@H](O)[C@H](O)[C@H](O)CO [2-DG, 2-deoxyglucose]
- average (main) effect HR [1]: 0.74
- mortality hazard ratio (HR) versus control group [1]: 0.84
- cell death, sensitivity of SCCs versus FCCs to glycolysis inhibition (hGBM SCCs and FCCs; 0, 5 or 20 mM for 24 hours): SCCs are less sensitive to this pharmacological inhibition than FCCs

SMILES: CCc1c(-c2ccccc2)c(-c2ccccc2)nn1-c1ccccc1-c1cccc(OCC(=O)O)c1 [FABP3 inhibitor]
- uptake of fluorescently labeled fatty acid C16-BODIPY (FABP3): significantly decreased

SMILES: O=C(O)C1[C@H](c2ccccc2)C(C(=O)Oc2cccc3ccccc23)[C@H]1c1ccccc1 (stereo partly shown) [SB-FI-26]
- average (main) effect HR [1]: 0.38
- mortality hazard ratio (HR) versus control group [1]: 0.43
- cell migration ([2]; FACS-sorted SCCs, all cell lines tested): significant decrease of cell migration
- cell migration ([2]; unsorted total GBM populations, all three lines, 1 and 10 μM): significantly reduced overall cell migration
- uptake of fluorescently labeled fatty acid C16-BODIPY (FABP7): significantly decreased
- FCC growth (L1 SCCs and FCCs; L1 FCCs, decreased glucose plus 200 nM FABP7 inhibitor): did not result in any additional growth inhibitory effect on FCCs
- SCC survival/proliferation (L1 SCCs and FCCs; L1 SCCs, lower glucose plus 200 nM FABP7 inhibitor): significantly inhibited
- tumor cell invasion in vivo [3]: decreased of cell invasion

SMILES: CN(C)C(=N)N=C(N)N [metformin]
- apoptotic cell death (cleaved caspase 3) in SCCs (hGBM SCCs and FCCs): significant increase in apoptotic cell death
- GBM cell survival, combination with glucose deprivation (hGBM cells): greatest inhibitory effect on GBM cell survival

SMILES: C=C(C)[C@H]1Cc2c(ccc3c2O[C@@H]2COc4cc(OC)c(OC)cc4[C@@H]2C3=O)O1 [rotenone]
- survival ([4]; FCC-implanted animals, 0.5 mg/kg i.p. once a week): did not gain any survival benefit
- survival ([4]; SCC-implanted animals, 0.5 mg/kg i.p. once a week, versus vehicle): significant increase in survival
- survival ([4]; animals implanted with total unsorted population): improved survival
- apoptotic cell death (cleaved caspase 3) in SCCs (hGBM SCCs and FCCs): significant increase in apoptotic cell death
- GBM cell survival, combination with glucose deprivation (hGBM cells): greatest inhibitory effect on GBM cell survival
